Laboratory results: patent publication US6090834A, “Substituted oxazoles for the treatment of inflammation” (G.D. Searle & Co., priority 1998, dated 2000)

What was measured:
carrageenan foot edema = assay: Rat Carrageenan Foot Pad Edema Test; type: in vivo, Male Sprague-Dawley rats; details: oral, 3 h after carrageenan; for inhibition in vivo at 10 mg/kg: Rattus norvegicus, 10 mg/kg body weight, read-out: RAT PAW EDEMA % Inhibition @ 10 mg/kg body weight
Procedure: Rat Carrageenan Foot Pad Edema Test
Male Sprague-Dawley rats were selected in each group so that the average body weight was as close as possible. Rats were fasted with free access to water for over sixteen hours prior to the test. […] One hour later a subplantar injection of 0.1 mL of 1% solution of carrageenan/sterile 0.9% saline was administered and the volume of the injected foot was measured with a displacement plethysmometer connected to a pressure transducer with a digital indicator. Three hours after the injection of the carrageenan, the volume of the foot was again measured.

COX-1 = COX-1 activity in vitro (PGE2 formed, ELISA); type: biochemical, human or murine; details: recombinant enzyme, arachidonic acid 10 μM, pH 8.0; read-out: COX-1 ID50
Procedure: (§1) Evaluation of COX I and COX II activity in vitro
(§2) The COX-2 inhibition activity of the compounds of this invention illustrated in the Examples was determined by the following methods. a. Preparation of recombinant COX baculoviruses
(§3) Recombinant COX-1 and COX-2 were prepared as described by Gierse et al, [J. Biochem., 305, 479-84 (1995)]. A 2.0 kb fragment containing the coding region of either human or murine COX-1 or human or murine COX-2 was cloned into a BamH1 site of the baculovirus transfer vector pVL1393 (Invitrogen) to generate the baculovirus transfer vectors for COX-1 and COX-2 in a manner similar to the method of D. R. O'Reilly et al (Baculovirus Expression Vectors: A Laboratory Manual (1992)). Recombinant baculoviruses were isolated by transfecting 4 μg of baculovirus transfer vector DNA into SF9 insect cells (2×10^8) along with 200 ng of linearized baculovirus plasmid DNA by the calcium phosphate method. See M. D. Summers and G. E. Smith, A Manual of Methods for Baculovirus vectors and Insect Cell Culture Procedures, Texas Agric. Exp. Station Bull. 1555 (1987). Recombinant viruses were purified by three rounds of plaque purification and high titer (10^7 -10^8 pfu/ml) stocks of virus were prepared. For large scale production, SF9 insect cells were infected in 10 liter fermentors (0.5×10^6 /ml) with the recombinant baculovirus stock such that the multiplicity of infection was 0.1. After 72 hours the cells were centrifuged and the cell pellet homogenized in Tris/Sucrose (50 mM: 25%, pH 8.0) containing 1% 3-[(3-cholamidopropyl)dimethylammonio]-1-propanesulfonate (CHAPS). The homogenate was centrifuged at 10,000×G for 30 minutes, and the resultant supernatant was stored at -80° C. before being assayed for COX activity. […]
(§4) b. Assay for COX-1 and COX-2 activity
(§5) COX activity was assayed as PGE2 formed/μg protein/time using an ELISA to detect the prostaglandin released. CHAPS-solubilized insect cell membranes containing the appropriate COX enzyme were incubated in a potassium phosphate buffer (50 mM, pH 8.0) containing epinephrine, phenol, and heme with the addition of arachidonic acid (10 μM). Compounds were pre-incubated with the enzyme for 10-20 minutes prior to the addition of arachidonic acid. Any reaction between the arachidonic acid and the enzyme was stopped after ten minutes at 37° C./room temperature by transferring 40 μl of reaction mix into 160 μl ELISA buffer and 25 μM indomethacin. The PGE2 formed was measured by standard ELISA technology (Cayman Chemical).

COX-2 = COX-2 activity in vitro (PGE2 formed, ELISA); type: biochemical, human or murine; details: recombinant enzyme, arachidonic acid 10 μM, pH 8.0; read-out: COX II ID50
Procedure: as §1, §2, §3, §4, §5

[1] = test system: hyperalgesic foot withdrawal; assay: Rat Carrageenan-induced Analgesia Test; type: in vivo, Male Sprague-Dawley rats; details: oral, hyperalgesic foot withdrawal 3 h after carrageenan
Procedure: Rat Carrageenan-induced Analgesia Test
The analgesia test using rat carrageenan was performed with materials, reagents and procedures essentially as described by Hargreaves, et al., (Pain, 32, 77 (1988)). Male Sprague-Dawley rats were treated as previously described for the Carrageenan Foot Pad Edema test. Three hours after the injection of the carrageenan, the rats were placed in a special plexiglass container with a transparent floor having a high intensity lamp as a radiant heat source, positionable under the floor. After an initial twenty minute period, thermal stimulation was begun on either the injected foot or on the contralateral uninjected foot. A photoelectric cell turned off the lamp and timer when light was interrupted by paw withdrawal. The time until the rat withdraws its foot was then measured. The withdrawal latency in seconds was determined for the control and drug-treated groups, and percent inhibition of the hyperalgesic foot withdrawal determined.

Row | Structure (SMILES) | inhibition in vivo at 10 mg/kg (carrageenan foot edema) [%] | IC50 (COX-1) [µM] | IC50 (COX-2) [nM] | further results
1 | CCOC(=O)Cc1nc(-c2ccc(F)cc2)c(-c2ccc(S(C)(=O)=O)cc2)o1 [Example 11] | 42 | – | – | –
2 | CS(=O)(=O)c1ccc(-c2oc(COc3cccc(Cl)c3)nc2-c2ccc(F)cc2)cc1 [Example 30, 4-(4-fluorophenyl)-5-[4-(methylsulfonyl)phenyl]-2-(3-chlorophenoxy)methyloxazole] | 4 | > 100 | < 100 | –
3 | COc1ccc(Cc2nc(-c3ccc(F)cc3)c(-c3ccc(S(C)(=O)=O)cc3)o2)cc1 [Example 8, 4-(4-Fluorophenyl)-2-(4-methoxyphenyl)methyl-5-[4-methylsulfonylphenyl]oxazole] | 12 | – | – | –
4 | COc1ccc(-c2oc(C(F)(F)F)nc2-c2ccc(S(C)(=O)=O)cc2)cc1F [Example 70, 5-(3-fluoro-4-methoxyphenyl)-4-(4-methylsulfonylphenyl)-2-trifluoromethyloxazole] | – | > 100 | < 100 | RAT PAW EDEMA % Inhibition (1 @ 30 mg/kg body weight) (carrageenan foot edema): 46%
5 | CS(=O)(=O)c1ccc(-c2oc(-c3ccccc3)nc2-c2ccc(F)cc2)cc1 [Example 3, 4-(4-Fluorophenyl)-5-[4-(methylsulfonyl)phenyl]-2-phenyloxazole] | 30 | > 10 | < 100 | –
6 | CC(C)(C)c1nc(-c2ccc(F)cc2)c(-c2ccc(S(C)(=O)=O)cc2)o1 [Example 7, 2-(Tert-butyl)-4-(4-fluorophenyl)-5-[4-(methylsulfonyl)phenyl]oxazole] | 24 | – | – | –
7 | CS(=O)(=O)c1ccc(-c2oc(COc3ccccc3)nc2-c2ccc(F)cc2)cc1 [Example 28, 4-(4-fluorophenyl)-5-[4-(methylsulfonyl)-phenyl]-2-phenoxymethyloxazole] | 2 | – | – | –
8 | CS(=O)(=O)c1ccc(-c2oc(CC(=O)O)nc2-c2ccc(F)cc2)cc1 [Example 16, 2-[4-(4-Fluorophenyl)-5-[4-(methylsulfonyl)phenyl]oxazol-2-yl]acetic acid] | 26 | – | – | –
9 | CS(=O)(=O)c1ccc(-c2oc(CCc3ccccc3)nc2-c2ccc(F)cc2)cc1 [Example 1, 4-(4-fluorophenyl)-2-(2-phenylethyl)-5-(4-(methylsulfonyl)phenyl)oxazole] | – | 6.9 | < 100 | RAT PAW EDEMA % Inhibition (* @ 20 mg/kg body weight) (carrageenan foot edema; 20 mg/kg body weight): 41%; ANALGESIA % Inhibition @ 20 mg/kg body weight [1]: 44%
10 | CS(=O)(=O)c1ccc(-c2oc(C(c3ccccc3)c3ccccc3)nc2-c2ccc(F)cc2)cc1 [Example 10, 2-Diphenylmethyl-4-(4-fluorophenyl)-5-[4-methylsulfonylphenyloxazole]] | 18 | – | – | –
11 | COc1nc(-c2ccccc2)c(-c2ccc(S(N)(=O)=O)cc2)o1 [Example 55, 4-[2-methoxy-4-phenyl-5-oxazolyl]benzenesulfonamide] | – | 9.7 | < 100 | RAT PAW EDEMA % Inhibition (1 @ 30 mg/kg body weight) (carrageenan foot edema): 37%
12 | CS(=O)(=O)c1ccc(-c2oc(COc3ccc(F)cc3)nc2-c2ccc(F)cc2)cc1 [Example 31, 4-(4-fluorophenyl)-5-[4-(methylsulfonyl)-phenyl]-2-[(4-fluorophenoxy)methyl]oxazole] | 5 | > 100 | < 100 | –
13 | NS(=O)(=O)c1ccc(-c2oc(CC(=O)O)nc2-c2ccc(Cl)cc2)cc1 [Example 36, [5-(4-aminosulfonylphenyl)-4-(4-chlorophenyl)]-2-oxazoleacetic acid] | – | 24.7 | 1400 | –
